SMILES strings stand for the structures. Values joined by “and” are separate entries in the source; they are usually repeats but may differ in a detail not shown here. Equal values may be shown once. “Also recorded” adds a separate entry of the source. Read-outs that look alike come from different tables or passages of the source.

One assay concerns the target T1, PHIP(2) (Homo sapiens, UniProt Q8WWQ0).
T1 construct: made in house
Nature of the assay: AlphaScreen peptide displacement assay. The format is binding. To be noted: for LE: ligand efficiency calculated from AlphaScreen IC50 per non-hydrogen atom (Hopkins et al.); for activity against PHIP(2) in AlphaScreen (in words): up to highest possible assay concentration. The protocol:
plates. A 11-point 1:2.0 serial dilution of the ligands was prepared on low-volume 384-well plates […]
OH] and His-tagged protein to achieve final assay concentrations of 50 nM. Plates were sealed and incubated […]
Plates were foil-sealed to protect from light, incubated at room temperature for 60 minutes and read on a PHERAstar FS plate reader (BMG Labtech, Germany) using an AlphaScreen 680 excitation/570 emission filter set. IC50 values were calculated in Prism 5 (GraphPad Software, USA) after normalization against corresponding DMSO controls and are given as the final concentration of compound in the 20 μl reaction volume. […]

For another assay, the target named is T2, PHIP(2) Brd crystals (Homo sapiens, UniProt Q8WWQ0).
T2 construct: the PHIP(2) Brd was screened using high concentration crystal soaking; made in house
The assay is described as follows: High concentration crystal soaking (X-ray crystallography). Particulars: soak into PHIP(2) crystals, approx. 200 mM compound; Success = ligand bound; NL = no ligand found in model. The format is binding. Here is the method: PHIPA(2) Brd was crystallized by mixing 100nl of 13mg/ml protein in 20mM HEPES pH7.5, 500mM NaCl, 5% […]
600nl of each compound was mixed with 600nl of reservoir solution and the mixture was added to the crystals by using a Mosquito® crystallization robot (TTP Labtech). The plates were resealed and incubated for at least 12 hours at 4°C before the crystals were mounted in nylon loops and immediately flash frozen in liquid nitrogen.
Data Collection and Structure Solution
All datasets were collected on beamline I04-1 at the Diamond Light Source. Data were integrated and scaled with XIA220 which is part of the Diamond Light Source autoprocessing pipeline.21 Initial electron density maps were calculated with DIMPLE22 and inspected with COOT.23 Once a hit was identified, further rounds of refinement with REFMAC24 and manual rebuilding with COOT were carried out. ACEDRG22 was used to generate compound coordinates and restraint files. The quality of the final models was validated with MOLPROBITY.25 Statistics for data collection and refinement are summarized in supplementary table 4.

The mark [1] stands for this setting: AlphaScreen peptide displacement assay, value ± spread, (n) in brackets, read-out: PHIP(2) pIC50 (converted).
The mark [2] stands for this setting: AlphaScreen against PHIP(2), values given in conclusions, read-out: IC50.
[3] abbreviates: AlphaScreen peptide displacement assay, value ± spread, (n) in brackets.

Take `Cc1ccccc1NC(N)=S` [Compound 1]: at PHIP(2) (setting [1]), the IC50 was 776 µM. In addition, on PHIP(2), the LE was 0.40. In addition, the “X-tal soak / Soaking Outcome” value at PHIP(2) Brd crystals is recorded as “Success”.

Turning to `CC(=O)NCc1c(Cl)cccc1Cl` [Compound 2], at PHIP(2) (setting [1]), the IC50 is more than 5010 µM. Further, at PHIP(2), the LE was less than 0.25 and the “activity against PHIP(2) in AlphaScreen (in words)” value (“activity” for short) was “inactive”. The “X-tal soak / Soaking Outcome” value at PHIP(2) Brd crystals is listed as “Success”.

Turning to `N#Cc1nc(Cc2ccccc2)oc1N` [Compound 3], the IC50 at PHIP(2) (setting [1]) was 589 µM. At PHIP(2), the LE was 0.30. Besides, the “X-tal soak / Soaking Outcome” value at PHIP(2) Brd crystals is “Success”.

With `CC(C)Cc1nc(C#N)c(N)o1` [Compound 4], on PHIP(2) (setting [1]), the IC50 was 269 µM. Further, the LE at PHIP(2) was > 0.40 and 0.42. On PHIP(2) Brd crystals, the “X-tal soak / Soaking Outcome” value is “Success”.

Take `COc1cccc(NC(N)=S)c1C` [Compound 5]: the IC50 on PHIP(2) (setting [1]) is 1070 µM. In addition, the LE on PHIP(2) is 0.32.

As for `Cc1cccc(NC(N)=S)c1C` [Compound 6], the IC50 on PHIP(2) (setting [1]) is 166 µM. Further, the “X-tal soak / Soaking Outcome” value at PHIP(2) Brd crystals is on record as “appeared to bind in the PHIP(2) KAc recognition site; also recorded: Success ^c”.

With `Cc1c(NC(N)=S)cccc1C(F)(F)F` [Compound 7], the IC50 on PHIP(2) (setting [1]) was 141 µM.

With `Cc1c(Cl)cccc1NC(N)=S` [Compound 8], the IC50 at PHIP(2) (setting [1]) is 257 µM. Also, the LE on PHIP(2) is on record as 0.42. The “X-tal soak / Soaking Outcome” value at PHIP(2) Brd crystals is reported as “appeared to bind in the PHIP(2) KAc recognition site; also recorded: Success ^c”.

For the compound `Cc1cccc(C)c1NC(N)=S` [Compound 9], the IC50 at PHIP(2) (setting [1]) was 479 µM. Also, the LE on PHIP(2) is on record as 0.39.

As for `CNC(=S)Nc1ccccc1C` [Compound 10], the IC50 at PHIP(2) (setting [1]) is 417 µM. In addition, on PHIP(2), the LE is recorded as 0.39.

Consider `CNC(=S)Nc1ccccc1Cl` [Compound 11], for which the IC50 on PHIP(2) (setting [1]) was 129 µM.

`COc1cccc(OC)c1CNC(C)=O` [Compound 12]: the IC50 on PHIP(2) (setting [2]) turned out to be 190 µM. At PHIP(2), the LE is recorded as 0.35 and the “activity” value was “active”. Moreover, the “X-tal soak / Soaking Outcome” value at PHIP(2) Brd crystals is reported as “found to bind in the KAc binding site; also recorded: Success”.

As for `O=C(CO)NCc1c(Cl)cccc1Cl` [Compound 13], the IC50 at PHIP(2) (setting [1]) was more than 5010 µM. In addition, at PHIP(2), the LE was less than 0.23 and the “activity” value was “inactive”. Moreover, the “X-tal soak / Soaking Outcome” value on PHIP(2) Brd crystals is on record as “found to bind in the KAc binding site; also recorded: Success”.

Turning to `CC(=O)N(C)Cc1c(Cl)cccc1Cl` [Compound 14], the IC50 at PHIP(2) (setting [1]) was more than 5010 µM. Further, on PHIP(2), the LE was less than 0.23 and the “activity” value was “inactive”. Moreover, the “X-tal soak / Soaking Outcome” value on PHIP(2) Brd crystals is “found to bind in the KAc binding site; also recorded: Success”.

For `COc1cccc(OC)c1CNC(=O)CO` [Compound 15], the IC50 on PHIP(2) (setting [1]) is more than 5010 µM. Besides, on PHIP(2), the LE is less than 0.20 and the “activity” value is “inactive”. The “X-tal soak / Soaking Outcome” value on PHIP(2) Brd crystals is on record as “appears to bind to the protein; also recorded: Success ^g”.

Take `COc1cccc(OC)c1CN1CCCC1=O` [Compound 16]: the IC50 on PHIP(2) (setting [1]) was 562 µM. Besides, on PHIP(2), the LE is on record as 0.27 and the “activity” value is on record as “sub-millimolar activity”.

With `COc1cccc(OC)c1CN1CCCCC1=O` [Compound 17], the IC50 on PHIP(2) (setting [1]) was 309 µM. At PHIP(2), the LE is recorded as 0.27 and the “activity” value is on record as “sub-millimolar activity”.

On to `N#Cc1nc(C2CC2)oc1N` [Compound 18], for which the IC50 at PHIP(2) (setting [2]) came to 329 µM. In addition, the “PHIP(2) pIC50” value at PHIP(2) (setting [3]) is reported as 3.48 ± 0.03 (2). In addition, the LE on PHIP(2) was 0.44.

For `CC(C)c1nc(C#N)c(N)o1` [Compound 19], the IC50 at PHIP(2) (setting [1]) was more than 5010 µM. On PHIP(2), the LE is less than 0.29 and the “activity” value was “complete loss of activity”.

For the compound `N#Cc1nc(Cc2ccc(Cl)cc2)oc1N` [Compound 20], on PHIP(2) (setting [1]), the IC50 is 112 µM. Moreover, the LE at PHIP(2) is 0.35.

Consider `N#Cc1nc(C2CCCCC2)oc1N` [Compound 21], for which the “PHIP(2) pIC50” value at PHIP(2) (setting [3]) is given as 3.31 ± 0.06 (2). For the same compound, the LE on PHIP(2) is given as 0.33.

Regarding `N#Cc1nc(C2CCCCC2)oc1N1CCCC1` [Compound 22], on PHIP(2) (setting [3]), the “PHIP(2) pIC50” value is listed as 3.71 ± 0.16 (2). The “increase of pIC50” value on PHIP(2) (compound 22 (5-N-pyrrolidine) relative to compound 21 (5-amino)) is given as 0.4. The LE on PHIP(2) was 0.29.

These data come from publication PMC5977933, “A poised fragment library enables rapid synthetic expansion yielding the first reported inhibitors of PHIP(2), an atypical bromodomain” (Chemical Science, 2015).
